One test addresses PHD2 (EGLN1) (Homo sapiens (Human), UniProt Q9GZT9). Kind of test: HIF-PH assay (14CO2 capture), PHD2 enzyme inhibition. It counts as biochemical. The settings on record: Table 1.
In a further test the target is PHD1 (EGLN2) (Homo sapiens (Human), UniProt Q96KS0). Kind of test: HIF-PH assay (14CO2 capture), PHD1 enzyme inhibition. Format: biochemical.
Where [1] appears, read: individual measurement, read-out: IC50 (μM) PHD2.
Where [2] appears, read: Table 1, individual measurement, read-out: IC50 (μM) PHD1.
The mark [3] stands for this setting: Table 1, ratio of the IC50 of the compound for each enzyme.
The mark [4] stands for this setting: Table 2 comparative data, IC50 PHD2/IC50 PHD1.

Where “and” joins values, the source holds several entries; their conditions need not be identical. Equal values may be shown once. Read-outs that look alike come from different tables or passages of the source.

Chain of PHD1 (EGLN2) (Q96KS0 whole entry): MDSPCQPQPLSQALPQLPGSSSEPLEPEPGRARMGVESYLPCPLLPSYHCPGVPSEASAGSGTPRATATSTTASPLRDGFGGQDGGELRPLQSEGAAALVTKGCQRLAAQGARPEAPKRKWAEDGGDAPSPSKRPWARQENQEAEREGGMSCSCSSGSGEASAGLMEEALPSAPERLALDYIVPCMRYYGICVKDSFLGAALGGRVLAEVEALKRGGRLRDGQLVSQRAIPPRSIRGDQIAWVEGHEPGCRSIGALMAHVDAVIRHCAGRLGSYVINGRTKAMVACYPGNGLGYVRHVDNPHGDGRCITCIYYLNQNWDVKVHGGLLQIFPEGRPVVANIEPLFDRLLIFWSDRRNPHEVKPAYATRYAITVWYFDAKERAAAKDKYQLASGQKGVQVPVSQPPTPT
Chain of PHD2 (EGLN1) (Q9GZT9 whole entry): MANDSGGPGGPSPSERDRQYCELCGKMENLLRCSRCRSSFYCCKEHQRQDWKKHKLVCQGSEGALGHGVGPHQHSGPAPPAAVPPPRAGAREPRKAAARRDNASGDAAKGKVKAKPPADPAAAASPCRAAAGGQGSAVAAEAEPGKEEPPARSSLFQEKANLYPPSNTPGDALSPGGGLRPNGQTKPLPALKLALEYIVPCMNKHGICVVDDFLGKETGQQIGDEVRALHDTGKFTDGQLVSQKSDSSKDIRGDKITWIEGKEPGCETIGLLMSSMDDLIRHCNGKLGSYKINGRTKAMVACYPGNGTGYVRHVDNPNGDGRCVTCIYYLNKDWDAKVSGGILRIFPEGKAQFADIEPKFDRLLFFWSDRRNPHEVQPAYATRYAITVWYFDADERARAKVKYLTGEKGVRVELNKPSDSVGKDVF

The term IC50 denotes the midpoint of a concentration-inhibition curve. On to `N#Cc1nc(C(=O)NC[C@H](NC(=O)OCc2ccccc2)C(=O)O)c(O)c2ccc(Oc3ccccc3)cc12` [Compound 87, 2-(S)-Benzyloxycarbonylamino-3-[(1-cyano-4-hydroxy-7-phenoxy-isoquinoline-3-carbonyl)-amino]-propionic acid], for which the 50% inhibitory concentration (IC50) at PHD2 (EGLN1) (setting [1]) stood at 27.5 µM; on PHD1 (EGLN2) (setting [2]), 3.56 µM. Moreover, on PHD1 (EGLN2) (setting [3]), the PHD2/PHD1 came out at 8.
Consider `O=C(O)CCCNC(=O)c1ncc2cc(Oc3ccccc3)ccc2c1O` [Compound 4, 4-[(4-Hydroxy-7-phenoxy-isoquinoline-3-carbonyl)-amino]-butyric acid], for which the results for the IC50 on PHD2 (EGLN1) (setting [1]) and at PHD1 (EGLN2) (setting [2]) were 7 µM and 1.17 µM, respectively. For the same molecule, on PHD1 (EGLN2) (setting [3]), the PHD2/PHD1 came to 6.
On to `C[C@@H](NC(=O)c1nc(C#N)c2cc(Oc3ccccc3)ccc2c1O)[C@@H](C)C(=O)O` [Compound 69, (2R,3R)-3-[(1-Cyano-4-hydroxy-7-phenoxy-isoquinoline-3-carbonyl)-amino]-2-methyl-butyric acid], for which the values for the IC50 at PHD2 (EGLN1) (setting [1]) and at PHD1 (EGLN2) (setting [2]) were 64.1 µM and 2.43 µM, respectively. Moreover, on PHD1 (EGLN2) (setting [3]), the PHD2/PHD1 is 26.
As to `N#Cc1nc(C(=O)NCC(C(=O)O)c2ccc(F)cc2)c(O)c2ccc(Oc3ccccc3)cc12` (centres unmarked) [Compound 181, 3-[(1-Cyano-4-hydroxy-7-phenoxy-isoquinoline-3-carbonyl)-amino]-2-(4-fluoro-phenyl)-propionic acid], the IC50 on PHD2 (EGLN1) (setting [1]) came to 9.45 µM; on PHD1 (EGLN2) (setting [2]), 1.45 µM. The PHD2/PHD1 at PHD1 (EGLN2) (setting [3]) is on record as 7.
The matching figures for `O=C(O)CCCCNC(=O)c1ncc2cc(Sc3ccccc3)ccc2c1O` [Compound 114, 5-[(4-Hydroxy-7-phenylsulfanyl-isoquinoline-3-carbonyl)-amino]-pentanoic acid]: 86.6 µM, 13.5 µM and 6.
Turning to `N#Cc1nc(C(=O)N[C@@H](CC(=O)O)c2cccnc2)c(O)c2ccc(Oc3ccccc3)cc12` [Compound 175, 3-(S)-[(1-Cyano-4-hydroxy-7-phenoxy-isoquinoline-3-carbonyl)-amino]-3-pyridin-3-yl-propionic acid], the figures for the IC50 on PHD2 (EGLN1) (setting [1]) and on PHD1 (EGLN2) (setting [2]) were 25.1 µM and 4.51 µM, respectively. For the same molecule, the PHD2/PHD1 on PHD1 (EGLN2) (setting [3]) is 6.
On to `N#Cc1nc(C(=O)N[C@H](CC(=O)O)c2ccccc2)c(O)c2ccc(Oc3ccccc3)cc12` [Compound 48, (R)-3-[(1-Cyano-4-hydroxy-7-phenoxy-isoquinoline-3-carbonyl)-amino]-3-phenyl-propionic acid], for which the IC50 is 50.1 µM at PHD2 (EGLN1) (setting [1]) and 5.42 µM at PHD1 (EGLN2) (setting [2]). The PHD2/PHD1 on PHD1 (EGLN2) (setting [3]) is on record as 9.
As for `O=C(O)CCCNC(=O)c1ncc2ccc(Oc3ccccc3)cc2c1O` [Compound 113, 4-[(4-Hydroxy-6-phenoxy-isoquinoline-3-carbonyl)-amino]-butyric acid], the IC50 on PHD2 (EGLN1) (setting [1]) was 200 µM; at PHD1 (EGLN2) (setting [2]), 21.2 µM. The PHD2/PHD1 at PHD1 (EGLN2) (setting [3]) came out at 9.
In the case of `C[C@H](CNC(=O)c1nc(C#N)c2cc(Oc3ccccc3)ccc2c1O)C(=O)O` [Compound 92, 3-[(1-Cyano-4-hydroxy-7-phenoxy-isoquinoline-3-carbonyl)-amino]-2-(R)-methyl-propionic acid], the IC50 on PHD2 (EGLN1) (setting [1]) is 3.88 µM; on PHD1 (EGLN2) (setting [2]) it was 0.28 µM. Besides, the PHD2/PHD1 on PHD1 (EGLN2) (setting [3]) came to 14.
The matching figures for `CC(C)(CNC(=O)c1ncc2cc(Sc3ccccc3)ccc2c1O)C(=O)O` [Compound 127, 3-[(4-Hydroxy-7-phenylsulfanyl-isoquinoline-3-carbonyl)-amino]-2,2-dimethyl-propionic acid]: 63.1 µM, 7.69 µM and 8.
`N[C@@H](CNC(=O)c1ncc2cc(Oc3ccccc3)ccc2c1O)C(=O)O` [Compound 9, 2-(S)-Amino-3-[(4-hydroxy-7-phenoxy-isoquinoline-3-carbonyl)-amino]-propionic acid]: the results for the 50% inhibitory concentration (IC50) on PHD2 (EGLN1) (setting [1]) and on PHD1 (EGLN2) (setting [2]) were above 200 µM and 33.9 µM, respectively. Moreover, on PHD1 (EGLN2) (setting [3]), the PHD2/PHD1 amounted to 6.
`N#Cc1nc(C(=O)NCC2(C(=O)O)CCC2)c(O)c2ccc(S(=O)(=O)C3CCCCC3)cc12` [Compound 161, 1-{[(1-Cyano-7-cyclohexanesulfonyl-4-hydroxy-isoquinoline-3-carbonyl)-amino]-methyl}-cyclobutanecarboxylic acid]: the IC50 on PHD2 (EGLN1) (setting [1]) is 200 µM; on PHD1 (EGLN2) (setting [2]), 19.8 µM. Moreover, the PHD2/PHD1 on PHD1 (EGLN2) (setting [3]) is given as 10.
For `CC(C)(CNC(=O)c1nc(C#N)c2cc(Oc3cc(F)ccc3Cl)ccc2c1O)C(=O)O` [Compound 31, 3-{[7-(2-Chloro-5-fluoro-phenoxy)-1-cyano-4-hydroxy-isoquinoline-3-carbonyl]-amino}-2,2-dimethyl-propionic acid], the IC50 worked out at 4.2 µM at PHD2 (EGLN1) (setting [1]) and 0.53 µM at PHD1 (EGLN2) (setting [2]). The PHD2/PHD1 on PHD1 (EGLN2) (setting [3]) was found to be 8.
The matching figures for `CN(C)C(=O)N[C@H](CCNC(=O)c1nc(C#N)c2cc(Oc3ccccc3)ccc2c1O)C(=O)O` [Compound 54, (R)-4-(1-Cyano-4-hydroxy-7-phenoxyisoquinoline-3-carboxamido)-2-(3,3-dimethylureido)butanoic acid]: 11 µM, 1.81 µM and 6.1.
For `CCc1ccccc1Oc1ccc2c(O)c(C(=O)NCC(C)(C)C(=O)O)nc(C#N)c2c1` [Compound 62, 3{-[1-Cyano-7-(2-ethyl-phenoxy)-4-hydroxy-isoquinoline-3-carbonyl]-amino}-2,2-dimethyl-propionic acid], the 50% inhibitory concentration (IC50) on PHD2 (EGLN1) (setting [1]) worked out at 3.06 µM; at PHD1 (EGLN2) (setting [2]) it was 0.48 µM. Also, on PHD1 (EGLN2) (setting [3]), the PHD2/PHD1 worked out at 6.
Take `CC(CCC(=O)O)NC(=O)c1nc(C#N)c2cc(Oc3ccccc3)ccc2c1O` (centres unmarked) [Compound 184, 4-[(1-Cyano-4-hydroxy-7-phenoxy-isoquinoline-3-carbonyl)-amino]-pentanoic acid]: the values for the IC50 on PHD2 (EGLN1) (setting [1]) and at PHD1 (EGLN2) (setting [2]) were 12.6 µM and 1.38 µM, respectively. Moreover, the PHD2/PHD1 on PHD1 (EGLN2) (setting [3]) was 9.
The matching figures for `N#Cc1nc(C(=O)NC[C@@H](O)CC(=O)O)c(O)c2ccc(Oc3ccccc3)cc12` [Compound 35, (S)-4-(1-Cyano-4-hydroxy-7-phenoxyisoquinoline-3-carboxamido)-3-hydroxybutanoic acid]: 2.83 µM, 0.23 µM and 12.
As for `N#Cc1nc(C(=O)NC(CC(=O)O)c2cccc(Cl)c2)c(O)c2ccc(Oc3ccccc3)cc12` (centres unmarked) [Compound 165, 3-(3-Chloro-phenyl)-3-[(1-cyano-4-hydroxy-7-phenoxy-isoquinoline-3-carbonyl)-amino]-propionic acid], the IC50 on PHD2 (EGLN1) (setting [1]) was determined as 28.1 µM; at PHD1 (EGLN2) (setting [2]), 1.51 µM. Besides, the PHD2/PHD1 at PHD1 (EGLN2) (setting [3]) is given as 19.
`O=C(NC[C@H](O)C(=O)O)c1ncc2cc(Oc3ccccc3)ccc2c1O` [Compound 3, 2-(S)-Hydroxy-3-[(4-hydroxy-7-phenoxy-isoquinoline-3-carbonyl)-amino]propionic acid]: the IC50 on PHD2 (EGLN1) (setting [1]) came out at 15.6 µM; at PHD1 (EGLN2) (setting [2]) it was 1.08 µM. Also, the PHD2/PHD1 on PHD1 (EGLN2) (setting [3]) and on PHD1 (EGLN2) (setting [4]) was 14 each time.
With `O=C(O)CCNC(=O)c1ncc2cc(S(=O)(=O)C3CCCCC3)ccc2c1O` [Compound 135, 3-[(7-Cyclohexanesulfonyl-4-hydroxy-isoquinoline-3-carbonyl)-amino]-propionic acid], the IC50 was 2.88 µM on PHD2 (EGLN1) (setting [1]) and 0.35 µM at PHD1 (EGLN2) (setting [2]). Further, at PHD1 (EGLN2) (setting [3]), the PHD2/PHD1 is 8.
The matching figures for `CCC(C)(CNC(=O)c1nc(C#N)c2cc(Oc3ccccc3)ccc2c1O)C(=O)O` (centres unmarked) [Compound 58, 2-{[(1-Cyano-4-hydroxy-7-phenoxy-isoquinoline-3-carbonyl)-amino]-methyl}-2-methyl-butyric acid]: 12.3 µM, 1.1 µM and 11.
Consider `CC(C)(CC(=O)O)NC(=O)c1ncc2cc(Oc3ccccc3)ccc2c1O` [Compound 6, 3-[(4-Hydroxy-7-phenoxy-isoquinoline-3-carbonyl)-amino]-3-methyl-butyric acid], for which the values for the IC50 on PHD2 (EGLN1) (setting [1]) and on PHD1 (EGLN2) (setting [2]) were 192 µM and 8.19 µM, respectively. Besides, the PHD2/PHD1 on PHD1 (EGLN2) (setting [3]) and on PHD1 (EGLN2) (setting [4]) was 23 in each case.
In the case of `N#Cc1nc(C(=O)NCC[C@@H](NC(N)=O)C(=O)O)c(O)c2ccc(Oc3ccccc3)cc12` [Compound 55, (R)-4-(1-Cyano-4-hydroxy-7-phenoxyisoquinoline-3-carboxamido)-2-ureidobutanoic acid], the IC50 at PHD2 (EGLN1) (setting [1]) was found to be 9.1 µM; on PHD1 (EGLN2) (setting [2]) it was 1.1 µM. In addition, the PHD2/PHD1 at PHD1 (EGLN2) (setting [3]) is given as 8.
For `N#Cc1nc(C(=O)N[C@H](CCc2ccccc2)CC(=O)O)c(O)c2ccc(Oc3ccccc3)cc12` [Compound 107, 3-(R)-[(1-Cyano-4-hydroxy-7-phenoxy-isoquinoline-3-carbonyl)-amino]-5-phenyl-pentanoic acid], the IC50 at PHD2 (EGLN1) (average of multiple independent measurements, read-out: IC50 (μM) PHD2 avg.) is 11.8 µM; on PHD2 (EGLN1) (setting [1]), 9.28 µM and 14.4 µM; on PHD1 (EGLN2) (Table 1, average of multiple independent measurements, read-out: IC50 (μM) PHD1 avg.), 2.37 µM; at PHD1 (EGLN2) (setting [2]), 2.46 µM and 2.28 µM. Also, the PHD2/PHD1 avg. on PHD1 (EGLN2) (Table 1, average of the ratios of multiple independent measurements) is reported as 5 avg. For the same molecule, at PHD1 (EGLN2) (setting [3]), the PHD2/PHD1 was 4 and 6.
For the molecule `O=C(Nc1ccccc1)Nc1ccc2c(O)c(C(=O)NC[C@H](O)C(=O)O)ncc2c1` [Compound 117, (S)-2-Hydroxy-3-{[4-hydroxy-7-(3-phenyl-ureido)-isoquinoline-3-carbonyl]-amino}-propionic acid], the IC50 on PHD2 (EGLN1) (setting [1]) was 51.4 µM; at PHD1 (EGLN2) (setting [2]) it was 4.66 µM. Besides, on PHD1 (EGLN2) (setting [3]), the PHD2/PHD1 was 11.
As to `N#Cc1nc(C(=O)NC[C@H](O)C(=O)O)c(O)c2ccc(Oc3ccccc3)cc12` [Compound 79, 3-[(1-Cyano-4-hydroxy-7-phenoxy-isoquinoline-3-carbonyl)-amino]-2-(S)-hydroxy-propionic acid], the concentration for half-maximal inhibition (IC50) at PHD2 (EGLN1) (setting [1]) is 1.69 µM; on PHD1 (EGLN2) (setting [2]), 0.11 µM. Besides, at PHD1 (EGLN2) (setting [3]), the PHD2/PHD1 came to 15.

Values taken from patent publication US9409892B2, “4-hydroxy-isoquinoline compounds as HIF hydroxylase inhibitors” (FIBROGEN, INC., priority 2012, dated 2016).
